This is an account of results in paper PMC11881437 (Molecular Medicine, 2025).

The test system of data set [1] is HCT116 cells. Nature of the data set: MTT cell viability assay. It counts as cell-based, human. The following applies: for IC50: Homo sapiens. The procedure:
HCT116 cells (1 × 10^3 cells/well) were seeded in 96-well plates and cell viability was determined using MTT (Sigma-Aldrich, USA). […] MTT (0.5 mg/ml) was added to the cells after 48 h of treatment and incubated for 3 h in dark at 37 °C. The generated formazan complexes were dissolved in DMSO and the absorbance were measured at 550 nm using a spectrophotometer (Infinite® 200 PRO, TECAN, Switzerland) (Bhowmik et al. [2013]).

The subject of data set [2] is HCT116 cells. The data set is described as follows: Annexin V/PI flow cytometry (apoptosis). Type of data set: cell-based, human. The following applies: HCT116, 48 h, IC50 doses; untreated 7.9%. How it is done:
Percentage of apoptotic cells were detected by Annexin V and propidium Iodide (PI) staining by flow cytometry analysis according to the protocols provided by manufacturer of the kit (Invitrogen, USA). In brief, cells were washed with PBS, suspended in binding buffer followed by incubation with Annexin V and PI. Then, the cells were analysed by using a flow cytometer (BD LSRFortessaTM X-20).
On the technique in general: In flow cytometry, cells or beads pass a laser one at a time.

The test system of data set [3] is HCT116 cells. Nature of the data set: Atomic force microscopy of cell morphology. Type of data set: cell-based, human. The following applies: HCT116, 24 h; 26 µM Orientin, 13 µM 5FU, 14 µM Orientin + 7 µM 5FU. The procedure:
The material properties and dimensions of the probe used in contact mode were as follows: resonance frequency of 13 kHz (± 4 kHz), force constant of 0.2 N/m (± 0.14 N/m), cantilever length of 450 µm (± 10 µm), cantilever width of 38 µm (± 5 µm), cantilever thickness of 2 µm (± 1 µm), tip radius of 5 nm (± 1 nm), and tip height of 17 µm (± 2 µm). The scan area depends on the size of the cancer cell and ranged from 20 × 10–30 × 20 µm^2. Image processing and data analysis were performed using Picoview 1.10 software.

In data set [4] the test system is CSC enriched spheres (CES) derived from HCT116 cells. The data set is described as follows: Tumorosphere (CES) diameter and number. Type of data set: cell-based, human. The following applies: 24 h, 5FU vs control, Orientin and combination vs 5FU. The procedure:
HCT116 CRC cells were grown in ultra-low attachment plate in 3dGRO™ Spheroid Medium (Sigma-Aldrich, USA) for 7 days. Spheroids enriched with CSCs were considered as CSC enriched spheres (CESs) or commonly referred as tumorospheres. After 7 days, tumorospheres were subjected to different treatments for 24 h, as per experimental protocol. Media of tumorospheres of all the treatment groups were collected, centrifuged to remove the cell debris and suspended spheres, supernatants were collected and vacuum concentrated. These supernatants were referred as conditioned medium (CM) and were stored at − 20 °C until use.

The next data set deals with OCT4, SOX2 and NANOG. The data set is described as follows: Real time PCR of stemness factors in sorted CD44+/CD133+ cells. It counts as cell-based, human. The following applies: 24 h. An excerpt: CD44^+/CD133^+ cells were isolated using MACS LS column (Miltenyi Biotec, USA) after leveled with CD44 and CD133 antibody conjugated with microbeads (Miltenyi Biotec, USA) by following manufacture’s protocol and subjected to further analysis. Cells expressing both CD44 and CD133 were isolated using magnetic cell sorter (MACS) (Guerriero et al. [2017]).
Total RNA was extracted from sorted CD44^+/CD133^+ cell population using TRIZOL (Thermo Fisher Scientific, USA) as described in manufacturer’s protocol. cDNAs were synthesized from RNA templates by using cDNA isolation kit (Bio-Rad, USA) and target genes like OCT4, SOX2 and NANOG were amplified by using real time PCR kit (Bio-Rad, USA) following manufacturer’s instructions by Roche LightCycler® 96 System (Switzerland). Glyceraldehyde-3-phosphate dehydrogenase (GAPDH) gene expression was used to normalize the expression of the target genes.
In general terms: Real-time PCR tracks product formation cycle by cycle.

Data set [5] deals with chick chorioallantoic membrane. The data set is described as follows: Chick chorioallantoic membrane (CAM) assay with conditioned medium of CES. The settings on record: CM of treated CES, day 4 vs day 1. How it is done: HCT116 CRC cells were grown in ultra-low attachment plate in 3dGRO™ Spheroid Medium (Sigma-Aldrich, USA) for 7 days. Spheroids enriched with CSCs were considered as CSC enriched spheres (CESs) or commonly referred as tumorospheres. After 7 days, tumorospheres were subjected to different treatments for 24 h, as per experimental protocol. Media of tumorospheres of all the treatment groups were collected, centrifuged to remove the cell debris and suspended spheres, supernatants were collected and vacuum concentrated. These supernatants were referred as conditioned medium (CM) and were stored at − 20 °C until use. To investigate the role of CSC on angiogenesis, a modified chick chorioallantoic membrane assay was carried out. Briefly, 100 µl CM of treated and untreated spheres were mixed with 1.5 mg/ml type I collagen (Gibco, USA). 10 µl of the mixture were loaded on the piece of 13 mm Thermanox discs (Nunc, Denmark) and permitted to get polymerize. The disc was then applied to the chorioallantoic membrane of a 4 days-old embryo. After 72 h of incubation, the area around the loaded disc was photographed with a digital camera, and the numbers of newly formed vessels were counted by two observers in a double-blind manner (Min et al. [2004]).

The nature of data set [6]: Hepatic oxidative parameters and liver/kidney histopathology, 10 days treatment. It counts as in vivo, BALB/c mice. The following applies: 5 mg/kg b.w i.v.; for kidney histopathology / liver histopathology: H&E. The procedure:
(§1) To determine the toxicity of only Orientin treatment in various doses, the mice were divided into five groups. Each group contained six animals (n = 6). Each animal of the vehicle control group (VC) was left untreated, while, mice of other four groups were administered Orientin intravenously with 1 mg/kg b.w, 3 mg/kg b.w, 5 mg/kg b.w and 10 mg/kg b.w dosage respectively for 28 days. […] All the treatments were continued for 10 days. On day 11 all the mice were sacrificed and different parameters were studied.
Values of all the parameters were calculated with respect to the amount of total protein present in liver homogenates.
Various organs and solid tumors collected after sacrificing the mice were embedded into paraffin after 10% neutral buffered formalin fixation. 4 μm sections were prepared and used for histopathological study.

Data set [7] in a line: Serum cytotoxicity markers (ALT, AST, ALP, BUN, creatinine). Type of data set: in vivo. The settings on record: BALB/c mice, 10 days, mean ± SD, n = 6. How it is done: as §1
Blood samples were collected from the retro-orbital venous plexus of mice for quantitative analysis of alanine aminotransferase (ALT), aspartate aminotransferase (AST), alkaline phosphatase (ALP), creatinine and blood urea nitrogen (BUN) in serum following kit protocol (Sigma Aldrich, USA). Optical densities were determined by using a spectrophotometer (Infinite® 200 PRO, TECAN, Switzerland).

Like-named read-outs stand apart in the source and are kept apart here.

Broadly, the IC50 is the concentration that gives 50% inhibition. Regarding `O=c1cc(-c2ccc(O)c(O)c2)oc2c([C@@H]3O[C@H](CO)[C@@H](O)[C@H](O)[C@H]3O)c(O)cc(O)c12` [Orientin], the “reduction of IC50 in combination compared to individual treatment” value in the data set on HCT116 cells [1] (HCT116, MTT, 48 h) is “approximately 50%”. The same compound showed an IC50 with HCT116 cells [1] (HCT-116, 48 h) of 26 µM. Also, the “percentage of apoptotic cells” value in the data set with HCT116 cells [2] is on record as 49.3%. The “cell morphology by AFM” value in the data set on HCT116 cells [3] was “cell shrinkage, distortion, nuclear condensation and fragmentation, membrane blebbing and morphological changes of cellular bodies”. Also, in data set [4], the diameter of spheres result is “significant decreases” and the number of spheres entry is on record as “significant decreases”. In the data set with OCT4, SOX2 and NANOG, the “mRNA level of stemness maintenance factors (OCT4, NANOG, SOX2)” value was “decreased”. The “number of blood vessels formed in CAM” value in data set [5] is given as “Non-significant change”. In data set [6], the kidney histopathology entry was “did not induce any toxicity” and the liver histopathology entry was “remained normal”. In data set [7], this compound yielded an ALP of 94.23 ± 2.10 U/ml, an ALT of 49.08 ± 1.99 U/ml, an AST of 134.7 ± 2.00 U/ml and a BUN of 21.48 ± 0.53 mg/dL. The compound further yielded a Creatinine in data set [7] of 0.49 ± 0.020 mg/dL.
Consider `O=c1[nH]cc(F)c(=O)[nH]1` [5FU, 5-Fluorouracil, reference compound], for which, in the data set on HCT116 cells [1] (HCT116, MTT, 48 h), the “reduction of IC50 in combination compared to individual treatment” value is “approximately 50%”. Further, the 50% inhibitory concentration (IC50) with HCT116 cells [1] (HCT-116, HCT116, MTT, 48 h, used separately, read-out: IC50) was 13 µM. In addition, the “percentage of apoptotic cells” value in the data set on HCT116 cells [2] is given as 54.5%. The “cell morphology by AFM” value in the data set with HCT116 cells [3] was “cell shrinkage, distortion, nuclear condensation and fragmentation, membrane blebbing and morphological changes of cellular bodies”. In data set [4], the diameter of spheres result is “significantly increased” and the number of spheres entry is on record as “significantly increased”. The “mRNA level of stemness maintenance factors (OCT4, NANOG, SOX2)” value in the data set on OCT4, SOX2 and NANOG is on record as “increased”. Besides, the “number of blood vessels formed in CAM” value in data set [5] is given as “increase in number of blood vessel formation”. In data set [6], the “hepatic LPO, ROS and NO” value was “induce”; the kidney histopathology entry is “distorted Bowman’s capsule, glomeruli, blood and cellular infiltration”; the liver histopathology entry is “distorted central vein, necrosis, cellular and blood infiltration”. In addition, the “hepatic GSH and activity of GST, GPx, SOD and CAT” value in data set [6] (5FU vs vehicle control, combination vs 5FU) was “reduced”. In data set [7], this compound came in with an ALP of 168.44 ± 4.09 U/ml, an ALT of 121.70 ± 3.95 U/ml, an AST of 219.16 ± 2.83 U/ml and a BUN of 30.76 ± 0.46 mg/dL. Further, in data set [7], the Creatinine came to 0.73 ± 0.023 mg/dL.
